Patent publication US7115750B1, “Melanin concentrating hormone antagonist” (Takeda Pharmaceutical Company Limited, priority 1999, dated 2006)

With Cc1cc(-c2ccc(Cl)cc2)ccc1C(=O)Nc1ccc2c(c1)CCC(CN(C)C)C2 (centres unmarked) [Example 27, 4′-Chloro-N-[6-[(N,N-dimethylamino)methyl]-5,6,7,8-tetrahydro-2-naphthalenyl]-3-methyl[1,1′-biphenyl]-4-carboxamide] as the compound, how does the melting point read?
The melting point was 163 to 165 °C.

With Cl.O=C(Nc1ccc(CC2CCCNC2)cc1)c1ccc(-c2ccccc2)cc1 (centres unmarked) as the compound, how does the melting point read?
The melting point was 218 to 220 °C (dec.).

With CN(C)CC1=Cc2ccc(NC(=O)c3ccc(-c4ccc(Cl)cc4)cc3)cc2C1 [Example 246, 4′-Chloro-N-[2-[(dimethylamino)methyl]-1H-inden-6-yl][1,1′-biphenyl]-4-carboxamide] as the compound, how does the melting point read?
Its melting point is 218 to 220 °C.

Which melting point does the source give for COc1ccc(C2CCN(C(=O)Nc3ccc4c(c3)CCC(CN3CCN(C)CC3)=C4)CC2)cc1 [Example 242, 4-(4-Methoxyphenyl)-N-[6-[(4-methyl-1-piperazinyl)methyl]-7,8-dihydro-2-naphthalenyl]-1-piperidinecarboxamide] here?
The melting point was 198 to 200 °C.

With CN(C)CC1CCc2cc(NC(=O)c3ccc(-c4cccnc4)cc3)ccc2C1 (centres unmarked) [Example 30, N-[6-[(N,N-Dimethylamino)methyl]-5,6,7,8-tetrahydro-2-naphthalenyl]-4-(3-pyridinyl)benzamide] as the compound, how does the melting point read?
The melting point was 177 to 178 °C.

With Cl.O=C(Nc1ccc(CC2CCCNC2)cc1)c1ccc(-c2ccc(F)cc2)cc1 (centres unmarked) as the compound, how does the melting point read?
Its melting point is 205 °C (dec.).

Which melting point does the source give for CN(C)CC1=Cc2ccc(NC(=O)c3ccc(-c4ccc(F)cc4)cc3)cc2C1 [Example 245, N-[2-[(Dimethylamino)methyl]-1H-inden-6-yl]-4′-fluoro[1,1′-biphenyl]-4-carboxamide] here?
The melting point was 209 to 211 °C.

Which melting point does the source give for CN(C)CC1CCc2cc(NS(=O)(=O)c3ccc(-c4ccccc4)cc3)ccc2C1.Cl (centres unmarked) here?
The melting point was 168 to 170 °C.

With Cl.O=C(Nc1ccc(CC2CCCNC2)cc1)c1ccc(-c2ccc(Cl)cc2)cc1 (centres unmarked) as the compound, how does the melting point read?
Its melting point is 200 °C (dec.).

Which melting point does the source give for CN(C)CC1CCc2cc(NC(=O)c3ccc(-c4ccc(C(=O)O)cc4)cc3)ccc2C1 (centres unmarked) [Example 40, 4′-[[[6-[(N,N-Dimethylamino)methyl]-5,6,7,8-tetrahydro-2-naphthalenyl]amino]carbonyl][1,1′-biphenyl]-4-carboxylic acid] here?
The melting point was 143 °C (dec.).

Which melting point does the source give for CN(C)CC1COc2ccc(NC(=O)c3ccc(-c4ccccc4)cc3)cc2O1 (centres unmarked) [Example 104, N-[3-[(Dimethylamino)methyl]-2,3-dihydro-1,4-benzodioxin-6-yl][1,1′-biphenyl]-4-carboxamide] here?
The melting point was 124 to 126 °C.

With CC1=C(CN2CCCC2)CCc2cc(NC(=O)c3ccc(-c4ccc(F)cc4)cc3)ccc21 [Example 229, 4′-Fluoro-N-[5-methyl-6-(1-pyrrolidinylmethyl)-7,8-dihydro-2-naphthalenyl][1,1′-biphenyl]-4-carboxamide] as the compound, how does the melting point read?
Its melting point is 199 to 201 °C.

Which melting point does the source give for CN(C)CC1CCc2cc(NC(=O)c3cccc(-c4ccccc4)c3)ccc2C1 (centres unmarked) [Example 120, N-[6-[(Dimethylamino)methyl]-5,6,7,8-tetrahydro-2-naphthalenyl][1,1′-biphenyl]-3-carboxamide] here?
Its melting point is 145 to 148 °C.

For CN(C)CC1=Cc2ccc(NC(=O)c3ccc(-c4ccc(Cl)cc4)cc3)cc2CC1 [Example 41, 4′-Chloro-N-[6-[(N,N-dimethyl)methyl]-7,8-dihydro-2-naphthalenyl][1,1′-biphenyl]-4-carboxamide], which melting point is on record?
Its melting point is 204 to 207 °C.

With O=C(Nc1ccc2c(c1)CCC(CN1CCCC1)=C2)N1CC=C(c2ccc(Cl)cc2)CC1 [Example 159] as the compound, how does the melting point read?
The melting point was 217 to 218 °C.

For CC1=C(CN2CCCC2)CCc2cc(NC(=O)c3ccc(-c4ccc(C)cc4)nc3)ccc21 [Example 228, 6-(4-Methylphenyl)-N-[5-methyl-6-(1-pyrrolidinylmethyl)-7,8-dihydro-2-naphthalenyl]nicotinamide], which melting point is on record?
Its melting point is 175 to 176 °C.

For CN(C)CC1CCc2cc(NC(=O)c3ccc(-c4ccc(Cl)cc4)cc3)ccc2C1 (centres unmarked) [Example 12, (4′-Chlorobiphenyl-4-yl)-N-[2-(N,N-dimethylamino)methyl-6-tetralinyl]carboxamide], which melting point is on record?
The melting point was 187 to 189 °C.

Which melting point does the source give for CN(C)CC1CCc2cc(NC(=O)c3ccc(N4C(=O)c5ccccc5C4=O)cc3)ccc2C1 (centres unmarked) [Example 3, N-[2-(N,N-Dimethylamino)methyl-6-tetralinyl]-4-(1,3-dioxo-1,3-dihydro-2H-isoindol-2-yl) benzamide] here?
The melting point was 235 to 240 °C.

For CN(C)CC1CCCc2cc(NC(=O)c3ccc(-c4ccc(Cl)cc4)cc3)ccc2C1 (centres unmarked) [Example 46], which melting point is on record?
The melting point was 173 to 175 °C.

For CN(C)CCNC(=O)Cc1ccc(NC(=O)c2ccc(OCc3ccccc3)cc2)cc1 [Example 195], which melting point is on record?
Its melting point is 190 to 192 °C (dec.).

Which melting point does the source give for COc1ccc(CC(=O)Nc2ccc(CC(=O)NCCN(C)C)cc2)cc1OC [Example 187, 2-(3,4-dimethoxyphenyl)-N-[4-[2-[[2-(dimethylamino)ethyl]amino]-2-oxoethyl]phenyl]acetamide] here?
Its melting point is 123 to 124 °C.

Which melting point does the source give for O=C(Nc1ccc2c(c1)CCC(CN1CCCC1)C2)c1ccc(-c2ccc(Cl)cc2)cc1 (centres unmarked) [Example 98, 4′-Chloro-N-[6-(1-pyrrolidinylmethyl)-5,6,7,8-tetrahydro-2-naphthalenyl][1,1′-biphenyl]-4-carboxamide] here?
Its melting point is 206 to 209 °C.

For CN(C)CCNC(=O)Cc1ccc(NC(=O)c2ccc(NC(=O)c3ccccc3)cc2)cc1 [Example 192, 4-(Benzoylamino)-N-[4-[2-[[2-(dimethylamino)ethyl]amino]-2-oxoethyl]phenyl]benzamide], which melting point is on record?
The melting point was 220 to 221 °C.

Which melting point does the source give for COc1ccc2[nH]c(C)c(CC(=O)Nc3ccc(CC(=O)NCCN(C)C)cc3)c2c1 [Example 188, N-[4-[2-[[2-(Dimethylamino)ethyl]amino]-2-oxoethyl]phenyl]-2-(5-methoxy-2-methyl-1H-indol-3-yl)acetamide] here?
The melting point was 125 to 126 °C.

With CN(C)CCNC(=O)Cc1ccc(NC(=O)CCCc2nc(-c3cc4ccccc4o3)no2)cc1 [Example 182, 4-[3-(1-Benzofuran-2-yl)-1,2,4-oxadiazol-5-yl]-N-[4-[2-[[2-(dimethylamino)ethyl]amino]-2-oxoethyl]phenyl]butanamide] as the compound, how does the melting point read?
The melting point was 161 to 163 °C.

For CN(C)CCC1CCc2cc(NC(=O)c3ccc(-c4ccccc4)cc3)ccc2C1 (centres unmarked) [Example 209, N-[6-[2-(Dimethylamino)ethyl]-5,6,7,8-tetrahydro-2-naphthalenyl][1,1′-biphenyl]-4-carboxamide], which melting point is on record?
Its melting point is 112 to 114 °C.

For CN(C)CC1CCc2cc(NC(=O)c3ccc(-c4ccc(CO)cc4)cc3)ccc2C1 (centres unmarked) [Example 21, N-[6-[(N,N-Dimethylamino)methyl]-5,6,7,8-tetrahydro-2-naphthalenyl]-4′-(hydroxymethyl)[1,1′-biphenyl]-4-carboxamide], which melting point is on record?
Its melting point is 138 to 139 °C.

Which melting point does the source give for CCC1=C(CN(C)C)CCc2cc(NC(=O)c3ccc(-c4ccc(Cl)cc4)cc3)ccc21 [Example 112, 4′-Chloro-N-[6-[(dimethylamino)methyl]-S-ethyl-7,8-dihydro-2-naphthalenyl][1,1′-biphenyl]-4-carboxamide] here?
Its melting point is 201 to 204 °C.

Which melting point does the source give for CN(C)CCNC(=O)Cc1ccc(NC(=O)c2cc3ccccc3s2)cc1 [Example 185, N-[4-[2-[[2-(Dimethylamino)ethyl]amino]-2-oxoethyl]phenyl]-1-benzothiophen-2-carboxamide] here?
The melting point was 186 to 187 °C (dec.).
